From patent publication US10149876B2, “Tripterygium wilfordii extracts to overcome chemotherapy resistance” (WESTERN UNIVERSITY OF HEALTH SCIENCES, priority 2012, dated 2018)
“And” between values parts separate entries of the source, which are not always exact repeats. Equal values may be shown once. Read-outs that look alike come from different tables or passages of the source.

Experiments:
[1] = test system: BT474 cells; assay: SRB cell viability assay, Herceptin-sensitive BT474 cells; type: cell-based, human; details: for mean A at 565 nm: 72 h, background = 0.046
Procedure: Cell culture of the above cell lines was performed as described in Example 2, except that 5,000, rather than 3,000 cells were plated per well for the K562, K562/Dox, BT474, SkBr3 lines.
Table 17 also contains the serially-diluted concentrations of drugs that each cell line was tested against.

[2] = test system: SkBr3-TxR cells; assay: SRB cell viability assay, lapatinib-resistant SkBr3-TxR cells; type: cell-based, human; details: for viability at 0.001 µM / viability at 0.02 µM / viability at 0.067 µM / viability at 0.2 µM / viability at 0.67 µM / viability at 2 µM / viability at 6.7 µM / viability at 20 µM / IC50: Homo sapiens; for viability at 0.067 µM: Lapatinib 0.067 μM
Description: FIG. 13 summarizes the data of Tables 32-33 in a graphical format.
FIG. 14 summarizes the data of Tables 34 and 35 in a graphical format.

SMILES: CS(=O)(=O)CCNCc1ccc(-c2ccc3ncnc(Nc4ccc(OCc5cccc(F)c5)c(Cl)c4)c3c2)o1 [lapatinib]
- viability at 0.001 µM ([1]; Homo sapiens, BT-474, 72 h): 100%
- viability at 0.05 µM ([1]; Homo sapiens, BT-474, 72 h): 65.7%
- viability at 0.167 µM ([1]; Homo sapiens, BT-474, 72 h): 52.1%
- viability at 0.5 µM ([1]; Homo sapiens, BT-474, 72 h): 26.9%
- viability at 1.67 µM ([1]; Homo sapiens, BT-474, 72 h): 21.1%
- viability at 5 µM ([1]; Homo sapiens, BT-474, 72 h): 14.1%
- viability at 16.7 µM ([1]; Homo sapiens, BT-474, 72 h): 8%
- viability at 50 µM ([1]; Homo sapiens, BT-474, 72 h): 2.3%
- IC50 ([1]; Homo sapiens, BT-474, read-out: IC50 of drug when cells treated with drug only): 116 nM and 0.067 µg/mL
- mean A at 565 nm ([1]; Lapatinib 0.001 μM): 1.688
- mean A at 565 nm ([1]; Lapatinib 0.167 μM): 0.880
- mean A at 565 nm ([1]; Lapatinib 0.5 μM): 0.453
- mean A at 565 nm ([1]; Lapatinib 5 μM): 0.238
- mean A at 565 nm ([1]; Lapatinib 16.7 μM): 0.136
- mean A at 565 nm ([1]; Lapatinib 50 μM): 0.038
- viability at 0.001 µM ([2]; Lapatinib 0.001 μM, 72 h, no LGT-E pre-treatment (control to Table 34)): 100%
- viability at 0.001 µM ([2]; Lapatinib 0.001 μM, 72 h, pre-treated with […] LGT-E): 100%
- viability at 0.001 µM ([2]; Lapatinib 0.001 μM, no chemosensitizing pre-treatment (Table 33)): 100%
- viability at 0.02 µM ([2]; Lapatinib 0.02 μM, 72 h, no LGT-E pre-treatment (control to Table 34)): 99.2%
- viability at 0.02 µM ([2]; Lapatinib 0.02 μM, 72 h, pre-treated with […] LGT-E): 97.2%
- viability at 0.02 µM ([2]; Lapatinib 0.02 μM, no chemosensitizing pre-treatment (Table 33)): 103%
- viability at 0.067 µM ([2]; 72 h, no LGT-E pre-treatment (control to Table 34)): 96.2%
- viability at 0.067 µM ([2]; 72 h, pre-treated with […] LGT-E): 92.6%
- viability at 0.067 µM ([2]; no chemosensitizing pre-treatment (Table 33)): 102%
- viability at 0.2 µM ([2]; Lapatinib 0.2 μM, 72 h, no LGT-E pre-treatment (control to Table 34)): 93.1%
- viability at 0.2 µM ([2]; Lapatinib 0.2 μM, 72 h, pre-treated with […] LGT-E): 90.3%
- viability at 0.2 µM ([2]; Lapatinib 0.2 μM, no chemosensitizing pre-treatment (Table 33)): 97.2%
- viability at 0.67 µM ([2]; Lapatinib 0.67 μM, 72 h, no LGT-E pre-treatment (control to Table 34)): 88.8%
- viability at 0.67 µM ([2]; Lapatinib 0.67 μM, 72 h, pre-treated with […] LGT-E): 75.9%
- viability at 0.67 µM ([2]; Lapatinib 0.67 μM, no chemosensitizing pre-treatment (Table 33)): 91.8%
- viability at 2 µM ([2]; Lapatinib 2 μM, 72 h, no LGT-E pre-treatment (control to Table 34)): 70.4%
- viability at 2 µM ([2]; Lapatinib 2 μM, 72 h, pre-treated with […] LGT-E): 60.9%
- viability at 2 µM ([2]; Lapatinib 2 μM, no chemosensitizing pre-treatment (Table 33)): 77.2%
- viability at 6.7 µM ([2]; Lapatinib 6.7 μM, 72 h, no LGT-E pre-treatment (control to Table 34)): 47.7%
- viability at 6.7 µM ([2]; Lapatinib 6.7 μM, 72 h, pre-treated with […] LGT-E): 34.9%
- viability at 6.7 µM ([2]; Lapatinib 6.7 μM, no chemosensitizing pre-treatment (Table 33)): 46.4%
- viability at 20 µM ([2]; Lapatinib 20 μM, 72 h, no LGT-E pre-treatment (control to Table 34)): 25.4%
- viability at 20 µM ([2]; Lapatinib 20 μM, 72 h, pre-treated with […] LGT-E): 18.3%
- viability at 20 µM ([2]; Lapatinib 20 μM, no chemosensitizing pre-treatment (Table 33)): 26.4%
- IC50 ([2]; read-out: IC50 of drug when cells pre-treated with Chemosensitizing Agent before drug treatment): 3.92 µM and 2.28 µg/mL
- IC50 ([2]; read-out: IC50 of drug when cells treated with drug only): 6.2 µM and 3.6 µg/mL
- mean A at 565 nm ([2]; Lapatinib 0.001 μM, 72 h, no LGT-E pre-treatment (control to Table 34), background = 0.044): 2.294
- mean A at 565 nm ([2]; Lapatinib 0.001 μM, no chemosensitizing pre-treatment (Table 33), background = 0.047): 2.298
- mean A at 565 nm ([2]; Lapatinib 0.02 μM, 72 h, no LGT-E pre-treatment (control to Table 34), background = 0.044): 2.276
- mean A at 565 nm ([2]; Lapatinib 0.02 μM, 72 h, pre-treated with […] LGT-E, background = 0.044): 2.151
- mean A at 565 nm ([2]; Lapatinib 0.02 μM, no chemosensitizing pre-treatment (Table 33), background = 0.047): 2.357
- mean A at 565 nm ([2]; Lapatinib 0.2 μM, 72 h, pre-treated with […] LGT-E, background = 0.044): 1.999
- mean A at 565 nm ([2]; Lapatinib 0.2 μM, no chemosensitizing pre-treatment (Table 33), background = 0.047): 2.234
- mean A at 565 nm ([2]; Lapatinib 0.67 μM, 72 h, no LGT-E pre-treatment (control to Table 34), background = 0.044): 2.038
- mean A at 565 nm ([2]; Lapatinib 2 μM, 72 h, no LGT-E pre-treatment (control to Table 34), background = 0.044): 1.614
- mean A at 565 nm ([2]; Lapatinib 2 μM, 72 h, pre-treated with […] LGT-E, background = 0.044): 1.348
- mean A at 565 nm ([2]; Lapatinib 2 μM, no chemosensitizing pre-treatment (Table 33), background = 0.047): 1.775
- mean A at 565 nm ([2]; Lapatinib 6.7 μM, 72 h, no LGT-E pre-treatment (control to Table 34), background = 0.044): 1.095
- mean A at 565 nm ([2]; Lapatinib 6.7 μM, 72 h, pre-treated with […] LGT-E, background = 0.044): 0.772
- mean A at 565 nm ([2]; Lapatinib 6.7 μM, no chemosensitizing pre-treatment (Table 33), background = 0.047): 1.066
- mean A at 565 nm ([2]; Lapatinib 20 μM, 72 h, no LGT-E pre-treatment (control to Table 34), background = 0.044): 0.584
- mean A at 565 nm ([2]; Lapatinib 20 μM, 72 h, pre-treated with […] LGT-E, background = 0.044): 0.406
- mean A at 565 nm ([2]; Lapatinib 20 μM, no chemosensitizing pre-treatment (Table 33), background = 0.047): 0.607
